Numbers after ± are expanded uncertainties.
Details: 298.15 K; 101.33 kPa; Liquid; Vibrating tube method

SMILES | mass density [kg/m3]
CCCCn1cc[n+](C)c1.[Cl-] [1-butyl-3-methylimidazolium chloride] | 1081.59 ± 0.38
CCCCCCn1cc[n+](C)c1.[Cl-] [1-hexyl-3-methylimidazolium chloride] | 1040.92 ± 0.34
CCCCCCCC[n+]1ccn(C)c1.[Cl-] [1-methyl-3-octylimidazolium chloride] | 1012.35 ± 0.31

Same assay, conditions: 323.15 K; 101.33 kPa; Liquid; Vibrating tube method

SMILES | mass density [kg/m3]
CCCCn1cc[n+](C)c1.[Cl-] [1-butyl-3-methylimidazolium chloride] | 1067.28 ± 0.37
CCCCCCn1cc[n+](C)c1.[Cl-] [1-hexyl-3-methylimidazolium chloride] | 1026.73 ± 0.32
CCCCCCCC[n+]1ccn(C)c1.[Cl-] [1-methyl-3-octylimidazolium chloride] | 998.05 ± 0.3

Same assay, conditions: 348.15 K; 101.33 kPa; Liquid; Vibrating tube method

SMILES | mass density [kg/m3]
CCCCn1cc[n+](C)c1.[Cl-] [1-butyl-3-methylimidazolium chloride] | 1053.35 ± 0.35
CCCCCCn1cc[n+](C)c1.[Cl-] [1-hexyl-3-methylimidazolium chloride] | 1012.81 ± 0.31
CCCCCCCC[n+]1ccn(C)c1.[Cl-] [1-methyl-3-octylimidazolium chloride] | 983.99 ± 0.3

Same assay, conditions: 363.15 K; 101.33 kPa; Liquid; Vibrating tube method

SMILES | mass density [kg/m3]
CCCCn1cc[n+](C)c1.[Cl-] [1-butyl-3-methylimidazolium chloride] | 1045.06 ± 0.34
CCCCCCn1cc[n+](C)c1.[Cl-] [1-hexyl-3-methylimidazolium chloride] | 1004.49 ± 0.3
CCCCCCCC[n+]1ccn(C)c1.[Cl-] [1-methyl-3-octylimidazolium chloride] | 975.67 ± 0.3

Reference: the NIST ThermoML archive (doi:10.1021/je3003783)
